In patent publication US9334271B2, “Purine derivatives and their use in the treatment of disease” (Novarits AG, priority 2012, dated 2016):
Where two headings read alike, the source gives them in different places.

Legend:
[1] = system: H4 mCherry-GFP-LC3 cells; assay: Test 3: Autophagy assay (mCherry-GFP-LC3 reporter, high-content imaging); format: cell-based, human; settings: 16-18 h treatment, mCherry-positive LC3 puncta/cell; for EC50: Homo sapiens
From the text: Autophagy is a catabolic pathway that degrades bulk cytosol in lysosomal compartments enabling amino acids and fatty acids to be recycled. One of the key regulators of autophagy is the mammalian target of rapamycin (mTOR), a conserved serine/threonine kinase which suppresses the initiation of the autophagic process when nutrients, growth factors and energy are available. To quantify autophagy induction by mTOR inhibitors, we use a mCherry-GFP-LC3 reporter which is amenable to retroviral delivery into mammalian cells, stable expression and analysis by fluorescence microscopy.
The amino acid sequence of the mCherry-GFP-LC3 construct is shown below (SEQ ID NO: 1). The mCherry sequence is underlined, GFP sequence is in bold and LC3A sequence is boxed.
Described hereinafter is an imaging protocol and image recognition algorithm to visualize and measure changes in the autophagic pathway.
Quantification of Autophagy Using High-Content Imaging and Analysis
• 1. Day 0: Cell plating. Subconfluent H4 mCherry-GFP-LC3 cells are harvested by trypsinization, resuspended in growth medium, and counted (H4 cells: Human neuroglioma cell line (ATCC)). A cell suspension of 66′000 cells/mL is prepared and 30 μL are added into the wells of a 384-well plate using an electronic multichannel pipette. […] The cell plates are briefly spun down and placed at 37° C. and 5% CO2. • 2. Day 1: Compound treatment. Compound dose responses are prepared in DMSO. The dose responses are then diluted 1:50 in medium. 10 ul of the diluted compound is added to 30 ul of cells, yielding a final 1:200 dilution of the original compound and final of 0.5% DMSO. Compound-treatments are performed in triplicates. The 384-well plates are placed at 37° C. and 5% CO2. Compound treatment is performed for 16-18 h (see Note 1). • 3. Day 2: Cell fixation. Cells are fixed by adding 10 μL/well 5× concentrated Mirsky's fixative supplemented with 25 μg/mL Hoechst33342. […] The 384-well plate is briefly spun down and incubated for 1 h at room temperature. Cells are then washed using a 384-well plate washer using a protocol which aspirates the volume down to 10 μL/well before dispensing 100 μL/well 1×TBS. Aspiration and dispensing steps are repeated 4 times and a final volume of 100 μL/well is left. The plate is sealed using an adhesive PCR foil. • 4. Imaging. The bottom of the plate is cleaned with 70% ethanol and then imaged using the InCell 1000 automated epifluorescence microscope. 20× magnification is used and 4 different areas (fields) are imaged per well, this typically captures a total of around 400 cells per well. Hoechst33342 images are acquired using an excitation of 360 nm (D360_40x filter), an emission of 460 nm (HQ460_40M filter) and an exposure time of 150 ms. GFP images are acquired using an excitation of 475 nm (S475_20x filter), an emission of 535 nm (HQ535_50M filter) and an exposure time of 1 s. mCherry images are acquired using an excitation of 535 nm (HQ535_50x filter), an emission of 620 nm (HQ620_60M filter) and an exposure time of 1 s. A quadruple band pass mirror is used for all images. • 5. Image analysis. The InCell Analysis software is used to analyze the images using the Multi Target Analysis algorithm. First, nuclei are detected in the Hoechst33342 image using top-hat segmentation and a minimal nuclear area of 50 μm^2. Cells are defined using a collar of 10 μm around the nuclei. Second, puncta (organelles) are identified in the mCherry image inside the cells using multi-top-hat segmentation. Third, the mask of the mCherry puncta is transferred onto the GFP image. Fourth, the GFP fluorescence intensity inside the mCherry puncta mask is measured (reference intensity). • 6. The ‘organelles’ parameter reflects mCherry-positive puncta of the mCherry-GFP-LC3 reporter and is used to calculate ‘LC3 puncta/cell’. […]

[2] = target: recombinant human mTOR (Homo sapiens (Human), UniProt P42345); assay: Test 1: mTOR ATP-binding assay based on TR-FRET; settings: GST-tagged truncated human mTOR, tracer-314, TR-FRET
Chain of recombinant human mTOR (P42345 1360-2549): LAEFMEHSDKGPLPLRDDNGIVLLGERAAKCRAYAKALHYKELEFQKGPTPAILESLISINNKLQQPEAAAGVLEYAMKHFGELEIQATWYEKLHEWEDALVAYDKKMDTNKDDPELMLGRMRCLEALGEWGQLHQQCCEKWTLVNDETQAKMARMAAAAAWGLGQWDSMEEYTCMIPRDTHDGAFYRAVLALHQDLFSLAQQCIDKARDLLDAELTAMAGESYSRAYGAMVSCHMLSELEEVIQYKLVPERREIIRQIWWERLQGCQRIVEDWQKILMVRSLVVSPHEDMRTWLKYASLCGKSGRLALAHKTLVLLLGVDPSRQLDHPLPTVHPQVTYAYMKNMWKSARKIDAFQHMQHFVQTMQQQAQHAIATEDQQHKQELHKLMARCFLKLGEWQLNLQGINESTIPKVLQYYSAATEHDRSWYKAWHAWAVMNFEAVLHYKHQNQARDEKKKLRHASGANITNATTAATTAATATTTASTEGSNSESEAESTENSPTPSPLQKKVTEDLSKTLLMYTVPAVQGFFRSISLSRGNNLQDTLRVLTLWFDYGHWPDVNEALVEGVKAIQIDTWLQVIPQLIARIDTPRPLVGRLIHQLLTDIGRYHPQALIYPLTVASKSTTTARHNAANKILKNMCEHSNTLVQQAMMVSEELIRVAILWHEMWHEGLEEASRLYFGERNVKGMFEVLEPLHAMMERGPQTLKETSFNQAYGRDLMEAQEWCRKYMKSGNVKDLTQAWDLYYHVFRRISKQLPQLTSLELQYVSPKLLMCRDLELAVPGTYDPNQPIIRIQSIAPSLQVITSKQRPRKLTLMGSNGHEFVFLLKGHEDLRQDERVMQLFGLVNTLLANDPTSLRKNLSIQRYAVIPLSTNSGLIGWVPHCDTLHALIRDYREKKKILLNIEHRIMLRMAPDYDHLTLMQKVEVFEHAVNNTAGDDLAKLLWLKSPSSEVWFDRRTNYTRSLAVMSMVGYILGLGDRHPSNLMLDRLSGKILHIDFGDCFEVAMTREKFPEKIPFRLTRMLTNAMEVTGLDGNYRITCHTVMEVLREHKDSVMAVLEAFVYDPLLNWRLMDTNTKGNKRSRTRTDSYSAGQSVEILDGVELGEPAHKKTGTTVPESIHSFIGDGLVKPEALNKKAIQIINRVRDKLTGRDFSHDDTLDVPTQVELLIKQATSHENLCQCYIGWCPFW
Description: Test 1: mTOR ATP-Binding Assay Based on TR-FRET for Recombinant Human mTOR
2. The final volume of the assay is 10 μL and the order of addition is as follows:
50 nL of compounds dilution;
Incubated for 60 minutes at room temperature.
TR-FRET measured in Biotek Synergy2 reader at: • Excitation 340 nm/emission 665 nm • Excitation 340 nm/emission 620 nm
The following final concentrations are used:
1 nM Europium anti-GST antibody;
The following controls are used:
3. IC50 determinations may be performed as follows:
The Emission ratio is converted to percentage of inhibition for each compound concentration. IC50 values are calculated by fitting a sigmoidal dose-response curve to a plot of assay readout over compound concentration. All fits and analysis are performed with the program XLfit4 (ID Business Solutions, Guildford, UK).

[3] = system: cellular mTOR kinase activity (phosphorylation of Thr 389 of S6K1) in TSC1-/- MEFs; assay: Test 2: Cellular mTOR assay (P-P70S6K T389 Surefire); format: cell-based; settings: Mus musculus
Description: Test 2: Cellular mTOR Assay
30 μl are added per well to a 384 well-plate using a Multidrop instrument (Thermo scientific), resulting in 4000 cells/well. The plates are incubated at 37° C./5% CO2 for 20 hours (to allow for settling and adherance to the surface).
Eight 3-fold serial dilutions of test-compounds (beginning at 1.8 mM) are prepared in 90% DMSO and compiled on 384 well master plates (Greiner). A pan-pPI3K/mTOR inhibitor (0.8 mM of 8-(6-methoxy-pyridin-3-yl)-3-methyl-1-(4-piperazin-1-yl-3-trifluoromethyl-phenyl)-1,3-dihydro-imidazo[4,5-c]quinolin-2-one in 90% DMSO) is added to the wells for the low control. 90% DMSO is added to the wells for the high controls. Compounds are provided as 250 nl shots (Hummingbird) in 384 well-polypropylene microplates (compound plates). 50 μl of growth medium is added to the compound plates (dilution 1:200) with the Multidrop. After shaking (1 min at 2000 rpm), 10 μl of the first dilution is then transferred to the cell plate with a Matrix Plate Mate 2×3 pipettor (final dilution 1:4). After 1 hour of treatment, medium is removed from the plate and 20 μl of Surefire lysis buffer is added per well with the Multidrop.
Cell lysates are frozen for 15 minutes, thawed with shaking and transferred to the experimental 384 well-Proxiplate (5 μl/well) for the P-P70S6K (T389) Surefire assay (Perkin Elmer #TGR70S50). The first mix is composed of the reaction buffer (containing the specific antibody), the activation buffer and the acceptor beads (40 vol, 10 vol and 1 vol respectively). 5 μl per well is added to the lysates with a Zephyr® SPE Workstation (Caliper Life Sciences) and incubated for 2 hours with shaking at room temperature. After this incubation time, the second mix of dilution buffer and donor beads (20 vol and 1 vol respectively) is added to the plate with the same instrument (2 μl/well). After 2 hours, the plate can be read with an EnVision® Multilabel Reader (Perkin Elmer). Since the beads are light sensitive, their transfer and incubation is executed in a dark room (greenlight).
The raw data is used to generate dose response curves for test compounds and IC50 values calculated therefrom.

[4] = TSC1-/- MEFs, 1 hour treatment, P-P70S6K (T389), read-out: Test 2: T389 cellular assay IC50
[5] = 1 h, read-out: Test 2: T389 cellular assay IC50 (nM)

Compound	Test 3: Autophagy EC50 (nM) [1]	IC50 [2] [nM]	IC50 [3, 4] [nM]	EC50 [1] [nM]	IC50 [3, 5] [nM]
C[C@H]1COCCN1c1nc(N2CCOC[C@@H]2C)c2nc(-c3ccccn3)[nH]c2n1 [Example 8, 2,6-Bis-((S)-3-methyl-morpholin-4-yl)-8-pyridin-2-yl-9H-purine]	n.m.	1030	806	–	–
C[C@H]1COCCN1c1nc(N2CCOC[C@@H]2C)c2nc(-c3cc[nH]n3)[nH]c2n1 [Example 10, 2,6-Bis-((S)-3-methyl-morpholin-4-yl)-8-(1H-pyrazol-3-yl)-9H-purine]	–	343	135	1440	–
C[C@@H]1COCCN1c1nc(N2CCOC[C@H]2C)c2nc(-c3cc[nH]n3)[nH]c2n1 [Example 11, 2,6-Bis-((R)-3-methyl-morpholin-4-yl)-8-(1H-pyrazol-3-yl)-9H-purine]	–	385	190	1520	–
CCC[C@@H]1COCCN1c1nc(N2CCOC[C@H]2C)c2nc(-c3cccc4[nH]ccc34)[nH]c2n1 [Example 12, 8-(1H-Indol-4-yl)-6-((R)-3-methyl-morpholin-4-yl)-2-((R)-3-propyl-morpholin-4-yl)-9H-purine]	–	194	–	674	534
CC[C@@H]1COCCN1c1nc(N2CCOC[C@H]2C)c2nc(-c3cccc4[nH]ccc34)[nH]c2n1 [Example 15, 2-((R)-3-Ethyl-morpholin-4-yl)-8-(1H-indol-4-yl)-6-((R)-3-methyl-morpholin-4-yl)-9H-purine]	–	60	–	752	194
C[C@@H]1COCCN1c1nc(N2CCN(C)CC2)nc2[nH]c(-c3cccc4[nH]ccc34)nc12 [Example 16, 8-(1H-Indol-4-yl)-6-((R)-3-methyl-morpholin-4-yl)-2-(4-methyl-piperazin-1-yl)-9H-purine]	n.m.	308	–	–	259
C[C@@H]1COCCN1c1nc(N2CCN(C3COC3)CC2)nc2[nH]c(-c3cccc4[nH]ccc34)nc12 [Example 18, 8-(1H-Indol-4-yl)-6-((R)-3-methyl-morpholin-4-yl)-2-(4-oxetan-3-yl-piperazin-1-yl)-9H-purine]	n.m.	91	249	–	–
C[C@@H]1COCCN1c1nc(N2CCC(C(F)(F)F)CC2)nc2[nH]c(-c3cccc4[nH]ccc34)nc12 [Example 22, 8-(1H-Indol-4-yl)-6-((R)-3-methyl-morpholin-4-yl)-2-(4-trifluoromethyl-piperidin-1-yl)-9H-purine]	–	1510	–	1680	1040
C[C@@H]1CN(c2nc(N3CCOC[C@H]3C)c3nc(-c4cccc5[nH]ccc45)[nH]c3n2)C[C@H](C)O1 [Example 23, 2-((2S,6R)-2,6-Dimethyl-morpholin-4-yl)-8-(1H-indol-4-yl)-6-((R)-3-methyl-morpholin-4-yl)-9H-purine]	n.m.	78	–	–	104
C[C@H]1COCCN1c1nc(N2CCOC[C@@H]2C)c2nc(-c3ccc(N)nc3)[nH]c2n1 [Example 27, 5-[2,6-Bis-((S)-3-methyl-morpholin-4-yl)-9H-purin-8-yl]-pyridin-2-ylamine]	–	2410	–	4740	1190
C[C@@H]1COCCN1c1nc(N2CCOC[C@H]2C)c2nc(-c3ccc(N)nc3)[nH]c2n1 [Example 28, 5-[2,6-Bis-((R)-3-methyl-morpholin-4-yl)-9H-purin-8-yl]-pyridin-2-ylamine]	–	754	–	2370	272
C[C@@H]1COCCN1c1nc(N2CCOC[C@H]2C)c2nc(-c3cnc(N)nc3)[nH]c2n1 [Example 29, 5-[2,6-Bis-((R)-3-methyl-morpholin-4-yl) 9H-purin-8-yl]-pyrimidin-2-yl-amine]	–	1310	–	3610	498
C[C@H]1COCCN1c1nc(N2CCOC[C@@H]2C)c2nc(-c3ccc(-c4ncc[nH]4)cc3)[nH]c2n1 [Example 30, 8-[4-(1H-Imidazol-2-yl)-phenyl]-2,6-bis-((S)-3-methyl-morpholin-4-yl)-9H-purine]	–	364	1140	1460	–
COc1cc(-c2nc3c(N4CCOC[C@H]4C)nc(N4CCOC[C@@H]4C)nc3[nH]2)c2cc[nH]c2c1 [Example 31, 8-(6-Methoxy-1H-indol-4-yl)-2-((S)-3-methyl-morpholin-4-yl)-6-((R)-3-methyl-morpholin-4-yl)-9H-purine]	–	28	–	145	71
COC(=O)c1cc(-c2nc3c(N4CCOC[C@H]4C)nc(N4CCOC[C@H]4C)nc3[nH]2)c2cc[nH]c2c1 [Example 32, 4-[2,6-Bis-((R)-3-methyl-morpholin-4-yl)-9H-purin-8-yl]-1H-indole-6-carboxylic acid methyl ester]	–	533	–	> 6000	1120
